Measurements from PubChem BioAssay AID1963870 (Molecular Pharmacology Branch, DTP, NCI, 2024).

Test system: 292921-168-R-J2-PDC KRAS tumor spheroid viability
Assay: Anticancer human tumor 292921-168-R-J2-PDC patient-derived pancreatic carcinoma cell line growth inhibition [KRAS2]
Conditions: spheroids with HUVEC and MSC; for IC50: curve of first compound; for viability, T/C: stronger effect = lower value
Method in brief: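 KRAS-mutant tumor cells were grown as spheroids with HUVEC endothelial cells and human MSCs as stroma. Targeted agents were tested alone and with KRAS pathway inhibitors. Doses started at or near clinical Cmax, or 10 microM, descending half-log.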

[1] = second compound 0.1 µM, first compound 0.0316 µM
[2] = second compound 0.1 µM, first compound 0.1 µM
[3] = second compound 0.1 µM, first compound 0.316 µM
[4] = second compound 0.1 µM, first compound 1 µM
[5] = second compound 0.1 µM, first compound 3.16 µM
[6] = second compound 0.316 µM, first compound 0.0316 µM
[7] = second compound 0.316 µM, first compound 0.1 µM
[8] = second compound 0.316 µM, first compound 0.316 µM
[9] = second compound 0.316 µM, first compound 1 µM
[10] = second compound 0.316 µM, first compound 3.16 µM
[11] = second compound 1 µM, first compound 0.0316 µM
[12] = second compound 1 µM, first compound 0.1 µM
[13] = second compound 1 µM, first compound 0.316 µM
[14] = second compound 1 µM, first compound 1 µM
[15] = second compound 1 µM, first compound 3.16 µM
[16] = second compound 3.16 µM, first compound 0.0316 µM
[17] = second compound 3.16 µM, first compound 0.1 µM
[18] = second compound 3.16 µM, first compound 0.316 µM
[19] = second compound 3.16 µM, first compound 1 µM
[20] = second compound 3.16 µM, first compound 3.16 µM
[21] = second compound 10 µM, first compound 0.0316 µM
[22] = second compound 10 µM, first compound 0.1 µM
[23] = second compound 10 µM, first compound 0.316 µM
[24] = second compound 10 µM, first compound 1 µM
[25] = second compound 10 µM, first compound 3.16 µM
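Also: drug exposure lasted seven days after spheroids formed for three days.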
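For viability, T/C in this document: percent of DMSO vehicle control viability which is 100%.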

COc1cc2nccc(Oc3ccc(NC(=O)C4(C(=O)Nc5ccc(F)cc5)CC4)cc3)c2cc1OC + COc1cc2nc(C)nc(NC(C)c3cc(N)cc(C(F)(F)F)c3)c2cc1OC1CCOC1
IC50 (second compound 0.1 µM): 2.31 µM | IC50 (second compound 0.316 µM): 2.44 µM | IC50 (second compound 1 µM): 1.59 µM | IC50 (second compound 3.16 µM): 0.996 µM | IC50 (second compound 10 µM): < 0.0316 µM | viability, T/C [1]: 102% | viability, T/C [2]: 110% | viability, T/C [3]: 101% | viability, T/C [4]: 77.8% | viability, T/C [5]: 40% | viability, T/C (second compound 0.1 µM, first compound 10 µM): 21.1% | viability, T/C [6]: 99.4% | viability, T/C [7]: 99.4% | viability, T/C [8]: 92% | viability, T/C [9]: 75% | viability, T/C [10]: 42.5% | viability, T/C (second compound 0.316 µM, first compound 10 µM): 23.7% | viability, T/C [11]: 102% | viability, T/C [12]: 86.9% | viability, T/C [13]: 88.6% | viability, T/C [14]: 60.4% | viability, T/C [15]: 33.2% | viability, T/C (second compound 1 µM, first compound 10 µM): 17.6% | viability, T/C [16]: 73.6% | viability, T/C [17]: 72.9% | viability, T/C [18]: 64.6% | viability, T/C [19]: 51.8% | viability, T/C [20]: 22.2% | viability, T/C (second compound 3.16 µM, first compound 10 µM): 11.8% | viability, T/C [21]: 45.1% | viability, T/C [22]: 31.1% | viability, T/C [23]: 36.6% | viability, T/C [24]: 31.9% | viability, T/C [25]: 15.8% | viability, T/C (second compound 10 µM, first compound 10 µM): 0.83%

CC(=O)OC12COC1CC(O)C1(C)C(=O)C(O)C3=C(C)C(OC(=O)C(O)C(NC(=O)OC(C)(C)C)c4ccccc4)CC(O)(C(OC(=O)c4ccccc4)C21)C3(C)C (stereo not given) + CNCc1ccccc1-c1csc(C(C)Nc2nc(C)nc3cc(OC)c(OC)cc23)c1
IC50 (second compound 0.1 µM): < 0.01 µM | IC50 (second compound 0.316 µM): < 0.01 µM | IC50 (second compound 1 µM): < 0.01 µM | IC50 (second compound 3.16 µM): < 0.01 µM | IC50 (second compound 10 µM): < 0.01 µM | viability, T/C (second compound 0.1 µM, first compound 0.01 µM): 13.9% | viability, T/C [1]: 15.9% | viability, T/C [2]: 13.8% | viability, T/C [3]: 14.6% | viability, T/C [4]: 17.2% | viability, T/C [5]: 18.1% | viability, T/C (second compound 0.316 µM, first compound 0.01 µM): 15.8% | viability, T/C [6]: 14.4% | viability, T/C [7]: 13% | viability, T/C [8]: 13% | viability, T/C [9]: 15.7% | viability, T/C [10]: 17.5% | viability, T/C (second compound 1 µM, first compound 0.01 µM): 16.5% | viability, T/C [11]: 15% | viability, T/C [12]: 11.5% | viability, T/C [13]: 12.3% | viability, T/C [14]: 17.4% | viability, T/C [15]: 22.8% | viability, T/C (second compound 3.16 µM, first compound 0.01 µM): 0.1% | viability, T/C [16]: 16.1% | viability, T/C [17]: 0.07% | viability, T/C [18]: 0.03% | viability, T/C [19]: 0.08% | viability, T/C [20]: 19.4% | viability, T/C (second compound 10 µM, first compound 0.01 µM): 0.14% | viability, T/C [21]: 0.09% | viability, T/C [22]: 0.06% | viability, T/C [23]: 0.04% | viability, T/C [24]: 0.08% | viability, T/C [25]: 0.17%
